According to patent EP2292587A1, “PHARMACEUTICAL COMPOSITION FOR INHIBITING THE TRANSCRIPTION FACTOR INDUCIBLE BY HYPOXIA, MODULATORS OF PATHOLOGICAL PROCESSES OF ANGIOGENESIS, ONCOGENESIS, INFLAMMATION, APOPTOSIS, AND CELLULAR THERAPY” (Fundacion De La Comunidad Valenciana Centro De …, priority 2008, dated 2009):

What was measured:
[1] = system: HCT116/p53+/+; assay: clonicity assay, HCT116/p53+/+; assay type: cell-based; settings: Homo sapiens, HCT-116; stimulated 72 hours, colonies counted after 10 days; read-out: survival IC50
Procedure: (§1) Clonicity assays were conducted to determine the toxicity of FM19G11 in p53-proficient (HT29 and HCT116/p53^+/+) and p53-deficient (HCT116/p53^-/-) tumor cells. Once the HT-29, HCT116/p53^+/+ and HCT116/p53^-/- cells were adhered to the culture plate, they were stimulated with increasing concentrations of FM19G11 (0.5, 1, 5, 10, 20, 50 µM) for 72 hours. After 10 days of stimulation, the number of colonies formed in the plates of treated and untreated cells was determined.
(§2) Results of the clonicity assays of HT29 human colon cancer cells, HCT116 cells treated with FM19G11 were monitored up to 10 after the treatment (Figure 28). The IC50 was determined by extrapolating the percentage with the concentration. FM19G11 was used at concentrations: 0.5, 1, 5, 10, 50, 100, 200 µM

[2] = system: HT29; assay: anchorage-independent growth in semisolid agar, HT29; assay type: cell-based, human; settings: 0.5 µM, 10 days, versus DMSO, p ≤ 0.005
Procedure: Anchorage-independent cell growth is a study which allows predicting the tumorigenicity of tumor cells in vivo. Anchorage-independent cell growth studies were performed for HT29, HCT116/p53^+/+ and HCT116/p53^-/- cells in semisolid agar which were monitored daily to determine the efficiency of the formation of colonies in the presence of carrier (DMSO) or FM19G11. To that end, the starting material was 75 x 10^3 cells suspended in semisolid agar, which were maintained until 10 days later. […] A reduction of the formation of colonies in the HCT116/p53^-/- cells is not observed. The growth of colonies was quantified in three independent experiments by means of counting colonies in the 4 x magnification optical field of an inverted optical microscope.

[3] = system: VEGF and COX-2; assay: qPCR of VEGF and COX-2 in dental pulp stem cells; assay type: cell-based, human; settings: 0.5 µM
Source text: The culture medium used was Low-Glucose DMEM supplemented with 10% fetal bovine serum. The human dental pulp mesenchymal stem line [Gronthos S, et al., "Postnatal human dental pulp stem cells (DPSCs) in vitro and in vivo" Proc Natl Acad Sci U S A, 2000 Dec 5; 97(25):13625-30.; Gronthos S et al.,." Stem cell properties of human dental pulp stem cells" J Dent Res, 2002 Aug; 81(8):531-5], obtained from human third molars from adults (19-29 years of age), was provided by the Cardioregeneration Dept. of the CIPF. The cells were seeded at a density of 2000 cells/cm^2, and when they reached a 90% confluence they were subcultured again by means of trypsinization.
Total RNA was isolated using the commercial kit RNAeasy (Qiagen) and following the manufacturer's instructions. 1 µg of total RNA of each sample was retrotranscribed using the commercial kit Reverse Transcription Reagent (Applied Biosystem). The quantitative polymerase chain reaction (qPCR) was carried out using Taqman probes and primers designed by Applied Biosystem for hsVEGF (Ref HS00173626_m1), hsCOX-2 (Ref Hs00153133_m1) and hsGAPDH (Ref HS 99999905_m1). […] The expression levels of VEGF and COX-2 were expressed as the increase of Ct with respect to the expression levels of GAPDH (constitutive expression gene): Ct (ΔCt)=Ct (VEGF or […])-Ct (GAPDH). […]

[4] = system: HT29; assay: clonicity assay, HT29; assay type: cell-based; settings: Homo sapiens, HT-29; stimulated 72 hours, colonies counted after 10 days; read-out: survival IC50
Procedure: as §1, §2

[5] = system: human dental pulp stem cells; assay: Annexin V/PI apoptosis and death in dental pulp stem cells; assay type: cell-based
Procedure: The apoptosis studies were conducted from cell cultures subjected to normoxic and hypoxic conditions in the presence and absence of the compound at 0.5 µM. The presence of phosphatidylserine in the outer part of the plasma membrane, characteristic of apoptotic processes, was detected using Annexin V (fluorescent dye Annexin V-FITC Apoptosis Detection Kit (BD Pharmingen, BD Biosciences) according to the manufacturer's instructions. The cells subjected to the different conditions were incubated with Annexin V for 30 minutes at 4°C. The cells were then incubated with propidium iodide (PI) and analyzed in a FACScalibur flow cytometer ([…]). PI-/AnnexinV+ cells were defined as early apoptotic cells, PI+/AnnexinV+ cells as late apoptotic cells and PI+/AnnexinV- cells as dead cells. Therefore, the number of total apoptotic cells will be the sum of early and late apoptotic cells.

[6] = system: ATR; assay: activation kinetics of ATR (Western blot), HCT116/p53-/-; assay type: cell-based, human; settings: 0.5 µM, after 1 hour
Source text: To determine the degree of involvement of p53 in the possible effects caused by FM19G11, a HCT116 colon cancer cell line with expression of p53 and the same HCT116 line in which p53 was inactivated by homologous recombination were used (Bunz, F, Dutriaux, A, Lengauer, C, Waldman, T, Zhou, S, Brown, JP et al., (1998) Requirement for p53 and p21 to sustain G2 arrest after DNA damage. Science 282: 1497-501; Bunz, F, Hwang, PM, Torrance, C, Waldman, T, Zhang, Y, Dillehay, L et al., (1999) Disruption of p53 in human cancer cells alters the responses to therapeutic agents. J Clin Invest 104: 263-9.). The HCT116/p53^+/+ and HCT116/p53^-/- cells were exposed to FM19G11 (0.5 µM) at different times, the phosphorylation (activation) pattern of the ATR protein and of p53 which can be phosphorylated by ATR (Tibbetts, RS, Brumbaugh, KM, Williams, JM, Sarkaria, JN, Cliby, WA, Shieh, SY et al., (1999) A role for ATR in the DNA damage-induced phosphorylation of p53. Genes Dev 13: 152-7.), in p53-proficient HCT116 cells, as well as ATR in p53-deficient cells being analyzed (Figure 23). […] This quick activation of ATR coincides with that of p53 in HCT116/p53^+/+ cells after 1 hour of treatment with FM19G11 (0.5 µM), but the activation of p53 remains virtually on the expression of cells without drug, for the different times analyzed.

Cc1ccc(C(=O)COC(=O)c2cccc(NC(=O)c3ccc([N+](=O)[O-])cc3[N+](=O)[O-])c2)cc1 [FM19G11, 2-oxo-2-(p-tolyl)ethyl 3-((2,4-dinitro)benzamido)benzoate]
IC50 [1]: 3500 nM | growth of colonies in semisolid agar [2]: significant decrease | increase of both VEGF and COX-2 (mRNA) ([3]; hypoxic conditions, 6 and 18 hours): inhibited | expression levels of VEGF and COX-2 ([3]; normoxic conditions): did not cause any effect | IC50 [4]: 1000 nM | death (decreased in hypoxia) ([5]; 0.5 µM): reverts the decrease in death | number of total apoptotic cells (reduced by hypoxia) ([5]; 0.5 µM, 72 hours): capable of reverting said effect | expression of the tumor suppressor p53 ([5]; hypoxia): recovery of p53 | phosphorylation of ATR [6]: quick increase
